Legend:
angiotensin type 2 (AT2) [1] = biological target: T1, angiotensin type 2 (AT2) (Oryctolagus cuniculus, UniProt G1T351); assay: AT2 binding assay (rabbit uterus binding assay); details: for IC50: rabbit uterus binding assay
T1 construct: from tissue; host or cells: rabbit uterus
T1 sequence (G1T351 1-363): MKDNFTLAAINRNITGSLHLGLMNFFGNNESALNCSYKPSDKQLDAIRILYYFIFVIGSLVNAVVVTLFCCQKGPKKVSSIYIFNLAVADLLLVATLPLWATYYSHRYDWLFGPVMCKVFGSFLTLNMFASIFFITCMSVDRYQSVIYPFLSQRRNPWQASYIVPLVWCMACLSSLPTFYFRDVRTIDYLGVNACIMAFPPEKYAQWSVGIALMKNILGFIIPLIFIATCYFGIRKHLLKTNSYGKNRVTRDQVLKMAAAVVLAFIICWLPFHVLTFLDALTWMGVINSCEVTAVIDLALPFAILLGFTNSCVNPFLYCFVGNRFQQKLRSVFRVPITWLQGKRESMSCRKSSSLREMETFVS
Text: (§1) A typical compound active in a rabbit uterus binding assay for detecting angiotensin type 2 (AT2) antagonists is compound 6 below. AT2 Binding Assay is a modification of the procedure by D. T. Dudley, et al, Mol. Pharmacol. 38:370 (1990) .

angiotensin type 2 (AT2) [2] = assay: AT2 binding assay (rabbit uterus binding assay); details: AT2 versus AT1
Text: as §1

AT1 = AT1 binding assay; details: at 10^-5 M concentration
AT-1 receptors = details: cited from earlier work

Compound	IC50 (angiotensin type 2 (AT2) [1])	further results
COc1cc2c(cc1OCc1ccccc1)CC(C(=O)O)N(C(=O)C(c1ccccc1)c1ccccc1)C2 (racemic) [Example 21, (RS)-2-(Diphenylacetyl)-1,2,3,4-tetrahydro-7-methoxy-6-(phenylmethoxy) -3-isoquinolinecarboxylic acid]	58.5 nM	
COc1ccc2c(c1OCc1ccccc1)CC(C(=O)O)N(C(=O)Cc1c(Cl)cccc1Cl)C2 (racemic) [Example 25, (RS)-2-[(2,6-Dichlorophenyl)acetyl]-1,2,3,4-tetrahydro-6-methoxy-5-(phenylmethoxy)-3-isoquinolinecarboxylic acid]	117 nM	
COc1ccc(NC(=O)N2Cc3ccc(OC)c(OCc4ccccc4)c3CC2C(=O)O)cc1 (racemic) [Example 27, (RS)-1,2,3,4-Tetrahydro-6-methoxy-2-[[(4-methoxyphenyl)amino]carbonyl]-5-(phenylmethoxy)-3-isoguinolinecarboxylic acid]	1110 nM	
CCOC(=O)C1Cc2c(ccc(OC)c2OCc2ccccc2)CN1C(=O)C(c1ccccc1)c1ccccc1 (racemic) [Example 30, (RS)-2-(Diphenylacetyl)-1,2,3,4-tetrahydro-6-methoxy-5-phenylmethoxy-3-isoquinolinecarboxylic acid, ethyl ester]	151 nM	
COc1ccc2c(c1OCc1ccc(C(=O)O)cc1)CC(C(=O)O)N(C(=O)C(c1ccccc1)c1ccccc1)C2 (racemic) [Example 33, (RS)-5-(4-Carboxyphenylmethoxy)-2-(diphenylacetyl)-1,2,3,4-tetrahydro-6-methoxy-3-isoquinolinecarboxylic acid]	752 nM	
CCCCc1nc(Cl)c(CO)n1Cc1ccc(-c2ccccc2-c2nn[nH]n2)cc1 [Dup753]		selective antagonism of AT-1 receptors (AT-1 receptors): selectively antagonized

Further lines, with some results ahead:

IC50 (angiotensin type 2 (AT2) [1])	Compound	further results
2.8 nM	COc1ccc2c(c1OCc1ccccc1)CC(C(=O)O)N(C(=O)C(c1ccccc1)c1ccccc1)C2 (racemic) [Example 20, (RS)-2-(Diphenylacetyl)-1,2,3,4-tetrahydro-6-methoxy-5-(phenylmethoxy)-3-isoquinolinecarboxylic acid]	binding affinity for the AT2 receptor site, in words (angiotensin type 2 (AT2) [1]): high binding affinity; selectivity for the AT2 site (angiotensin type 2 (AT2) [2]): highly selective for the AT2 site; AT1 binding assay activity (AT1): inactive
8.9 nM	COc1ccc2c(c1OCCc1ccccc1)CC(C(=O)O)N(C(=O)C(c1ccccc1)c1ccccc1)C2 (racemic) [Example 22, (RS)-2-(Diphenylacetyl)-1,2,3,4-tetrahydro-6-methoxy-5-(2-phenylethoxy)-3-isoquinolinecarboxylic acid]	
24.2 nM	COc1ccc2c(c1OCc1ccccc1)CC(C(=O)O)N(C(=O)C(c1ccc(Cl)cc1)c1ccc(Cl)cc1)C2 (racemic) [Example 23, (RS)-2-[Bis(4-chlorophenyl)acetyl]-1,2,3,4-tetrahydro-6-methoxy-5-(phenylmethoxy)-3-isoquinolinecarboxylic acid]	
1.6 nM	COc1ccc2c(c1OCc1ccccc1)CC(C(=O)O)N(C(=O)C(c1ccccc1)C1CCCC1)C2 (racemic) [Example 24, (RS)-2-(Cyclopentylphenylacetyl)-1,2,3,4-tetrahydro-6-methoxy-5-(phenylmethoxy)-3-isoquinolinecarboxylic acid]	
8.4 nM	COc1ccc2c(c1OCc1ccccc1)CC(C(=O)O)N(C(=O)N(C)c1ccccc1)C2 (racemic) [Example 26]	
1.9 nM	COc1ccc(COc2c(OC)ccc3c2CC(C(=O)O)N(C(=O)C(c2ccccc2)c2ccccc2)C3)cc1C (racemic) [Example 35]	

Reference: US5350757A, “Substituted 1,2,3,4-tetrahydroisoquinolines with angiotensin II receptor antagonist properties” (Warner-Lambert Company, priority 1993, dated 1994)
